Experimental data: patent publication US20260355196A1, “INHIBITORS AND DEGRADERS OF PIP4K PROTEIN” (Larkspur Biosciences, Inc., priority 2023, published 2026)

The compounds below were run against T1, PIP4K2C (Homo sapiens, UniProt Q8TBX8) (assay: HiBiT PIP4K2C degradation assay in MOLT-4 cells (endogenous PIP4K2C C-terminally tagged with HiBiT)). Details: 6 hours of incubation time, rather than 24 hours; MOLT-4, top concentration 10 micromolar; read-out: HiBIT-degradation MOLT4 PIP4k2C DC50 (6 hours, marked *).
T1 sequence (Q8TBX8 1-421): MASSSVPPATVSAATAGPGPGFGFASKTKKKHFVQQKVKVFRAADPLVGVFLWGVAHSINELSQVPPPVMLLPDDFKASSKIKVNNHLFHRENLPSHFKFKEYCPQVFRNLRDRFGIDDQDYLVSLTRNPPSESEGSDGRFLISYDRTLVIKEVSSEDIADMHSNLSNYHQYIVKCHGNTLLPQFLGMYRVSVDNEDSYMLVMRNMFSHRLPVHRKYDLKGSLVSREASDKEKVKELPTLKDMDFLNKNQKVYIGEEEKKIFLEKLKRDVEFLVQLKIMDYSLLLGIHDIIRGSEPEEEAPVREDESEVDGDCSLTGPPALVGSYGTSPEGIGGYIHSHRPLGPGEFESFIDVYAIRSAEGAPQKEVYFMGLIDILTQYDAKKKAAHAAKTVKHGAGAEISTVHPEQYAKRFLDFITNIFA
Assay type: cell-based
Parameters: untagged in primary human PBMCs and monocyte-derived dendritic cells
Method in brief: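 In a CRISPR-engineered MOLT-4 clone carrying HiBiT-tagged PIP4K2C, degradation was assessed after 24 or 6 hours of dosing (10 micromolar top, 3-fold steps). Luminescence from lytic HiBiT detection was fitted to obtain DC50.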

| Structure (SMILES) | DC50 |
| --- | --- |
| O=C1CCC(Nc2ccc(N3CCC(N4CCC(NC(=O)[C@H]5CC[C@H](Nc6ncc(F)c(-c7cccc(N8CCOCC8=O)c7)n6)CC5)CC4)C(F)(F)C3)c(F)c2)C(=O)N1 (stereo partly drawn) [Compound 496, trans-N-(1′-(4-((2,6-dioxopiperidin-3-yl)amino)-2-fluorophenyl)-3′,3′-difluoro-[1,4′-bipiperidin]-4-yl)-4-((5-fluoro-4-(3-(3-oxomorpholino)phenyl)pyrimidin-2-yl)amino)cyclohexane-1-carboxamide] | < 500 nM |
| O=C1CCC(Nc2ccc(N3CCC(N4CCC(C(=O)N[C@H]5CC[C@H](Nc6ncc(F)c(-c7cccc(N8CCCOC8=O)c7)n6)CC5)CC4)C(F)(F)C3)c(F)c2)C(=O)N1 (stereo partly drawn) [Compound 500, trans-1′-(4-((2,6-dioxopiperidin-3-yl)amino)-2-fluorophenyl)-3′,3′-difluoro-N-(4-((5-fluoro-4-(3-(2-oxo-1,3-oxazinan-3-yl)phenyl)pyrimidin-2-yl)amino)cyclohexyl)-[1,4′-bipiperidine]-4-carboxamide] | < 500 nM |
| O=C1CCC(Nc2ccc(N3CCC(N4CCC(C(=O)N[C@H]5CC[C@H](Nc6ncc(F)c(-c7cccc(N8CCOCC8=O)c7)n6)CC5)CC4)C(F)(F)C3)c(F)c2)C(=O)N1 (stereo partly drawn) [Compound 501, trans-1′-(4-((2,6-dioxopiperidin-3-yl)amino)-2-fluorophenyl)-3′,3′-difluoro-N-(4-((5-fluoro-4-(3-(3-oxomorpholino)phenyl)pyrimidin-2-yl)amino)cyclohexyl)-[1,4′-bipiperidine]-4-carboxamide] | < 500 nM |
| O=C1CCC(Nc2ccc(N3CCC(N4CCC(C(=O)N[C@H]5CC[C@H](Nc6ncc(F)c(-c7cccc(C8CC8)c7)n6)CC5)CC4)C(F)C3)c(F)c2)C(=O)N1 (stereo partly drawn) [Compound 502, N-((1r,4r)-4-((4-(3-cyclopropylphenyl)-5-fluoropyrimidin-2-yl)amino)cyclohexyl)-1′-(4-((2,6-dioxopiperidin-3-yl)amino)-2-fluorophenyl)-3′-fluoro-[1,4′-bipiperidine]-4-carboxamide] | < 500 nM |
| O=C1CCC(Nc2ccc(C3CCN([C@H]4CC[C@H](NC(=O)[C@H]5CC[C@H](Nc6ncc(F)c(-c7cccc(C8CC8)c7)n6)CC5)CC4)CC3)c(F)c2)C(=O)N1 (stereo partly drawn) [Compound 503, trans-4-((4-(3-cyclopropylphenyl)-5-fluoropyrimidin-2-yl)amino)-N-(trans-4-(4-(4-((2,6-dioxopiperidin-3-yl)amino)-2-fluorophenyl)piperidin-1-yl)cyclohexyl)cyclohexane-1-carboxamide] | < 500 nM |
| O=C1CCC(Nc2ccc(N3CCC(N4CCC(C(=O)N[C@H]5CC[C@H](Nc6ncc(F)c(-c7cccc(C8CC8)c7)n6)CC5)CC4)CC3)c(F)c2)C(=O)N1 (stereo partly drawn) [Compound 504, trans-N-(4-((4-(3-cyclopropylphenyl)-5-fluoropyrimidin-2-yl)amino)cyclohexyl)-1′-(4-((2,6-dioxopiperidin-3-yl)amino)-2-fluorophenyl)-[1,4′-bipiperidine]-4-carboxamide] | < 500 nM |
| Cn1nc(C2CCC(=O)NC2=O)c2ccc(C3CCN([C@H]4CC[C@H](CC(=O)N[C@H]5CC[C@H](Nc6ncc(F)c(-c7cccc(-n8ccccc8=O)c7)n6)CC5)CC4)CC3)cc21 (stereo partly drawn) [Compound 507, trans-2-((1r,4R)-4-(4-(3-(2,6-dioxopiperidin-3-yl)-1-methyl-1H-indazol-6-yl)piperidin-1-yl)cyclohexyl)-N-((1r,4R)-4-((5-fluoro-4-(3-(2-oxopyridin-1(2H)-yl)phenyl)pyrimidin-2-yl)amino)cyclohexyl)acetamide] | < 500 nM |
| O=C1CCC(Nc2ccc(N3CCN([C@H]4CC[C@H](NC(=O)[C@H]5CC[C@H](Nc6ncc(F)c(-c7cccc(N8CCOCC8=O)c7)n6)CC5)CC4)CC3)c(F)c2)C(=O)N1 (stereo partly drawn) [Compound 508, trans-N-(trans-4-(4-(4-((2,6-dioxopiperidin-3-yl)amino)-2-fluorophenyl)piperazin-1-yl)cyclohexyl)-4-((5-fluoro-4-(3-(3-oxomorpholino)phenyl)pyrimidin-2-yl)amino)cyclohexane-1-carboxamide] | < 500 nM |
| O=C1CCC(Nc2ccc(N3CCN([C@H]4CC[C@H](NC(=O)[C@H]5CC[C@H](Nc6ncc(F)c(-c7cccc(C(=O)N8CC[C@H](O)C8)c7)n6)CC5)CC4)CC3)c(F)c2)C(=O)N1 (stereo partly drawn) [Compound 509, trans-N-(trans-4-(4-(4-((2,6-dioxopiperidin-3-yl)amino)-2-fluorophenyl)piperazin-1-yl)cyclohexyl)-4-((5-fluoro-4-(3-((S)-3-hydroxypyrrolidine-1-carbonyl)phenyl)pyrimidin-2-yl)amino)cyclohexane-1-carboxamide] | < 500 nM |
| O=C1CCC(Nc2ccc(C3CCN([C@H]4CC[C@H](C(=O)N[C@H]5CC[C@H](Nc6ncc(F)c(-c7cccc(C(=O)N8CC[C@H](O)C8)c7)n6)CC5)CC4)CC3)c(F)c2)C(=O)N1 (stereo partly drawn) [Compound 511, trans-4-(4-(4-((2,6-dioxopiperidin-3-yl)amino)-2-fluorophenyl)piperidin-1-yl)-N-(trans-4-((5-fluoro-4-(3-((S)-3-hydroxypyrrolidine-1-carbonyl)phenyl)pyrimidin-2-yl)amino)cyclohexyl)cyclohexane-1-carboxamide] | < 500 nM |
| Cn1nc(N2CCC(=O)NC2=O)c2cc(F)c(C3CCN([C@H]4CC[C@H](C(=O)N[C@H]5CC[C@H](Nc6ncc(F)c(-c7cccc(-n8ccccc8=O)c7)n6)CC5)CC4)CC3)cc21 [Compound 512, trans-4-(4-(3-(2,4-dioxotetrahydropyrimidin-1(2H)-yl)-5-fluoro-1-methyl-1H-indazol-6-yl)piperidin-1-yl)-N-(trans-4-((5-fluoro-4-(3-(2-oxopyridin-1(2H)-yl)phenyl)pyrimidin-2-yl)amino)cyclohexyl)cyclohexane-1-carboxamide] | < 500 nM |

Results, then the compound that gave them:

| DC50 | Structure (SMILES) |
| --- | --- |
| < 500 nM | O=C1CCC(Nc2ccc(N3CCC(N4CCC(C(=O)N[C@H]5CC[C@H](Nc6ncc(F)c(-c7cccc(C8CC8)c7)n6)CC5)CC4)C(F)(F)C3)c(F)c2)C(=O)N1 (stereo partly drawn) [Compound 497, trans-N-(4-((4-(3-cyclopropylphenyl)-5-fluoropyrimidin-2-yl)amino)cyclohexyl)-1′-(4-((2,6-dioxopiperidin-3-yl)amino)-2-fluorophenyl)-3′,3′-difluoro-[1,4′-bipiperidine]-4-carboxamide] |
| < 500 nM | O=C1CCC(Nc2ccc(N3CCC(N4CCC(C(=O)N[C@H]5CC[C@H](Nc6ncc(F)c(-c7cccc(N8CCCCC8)c7)n6)CC5)CC4)C(F)(F)C3)c(F)c2)C(=O)N1 (stereo partly drawn) [Compound 498, trans-1′-(4-((2,6-dioxopiperidin-3-yl)amino)-2-fluorophenyl)-3′,3′-difluoro-N-(4-((5-fluoro-4-(3-(piperidin-1-yl)phenyl)pyrimidin-2-yl)amino)cyclohexyl)-[1,4′-bipiperidine]-4-carboxamide] |
| < 500 nM | O=C1CCC(Nc2ccc(N3CCC(N4CCC(C(=O)N[C@H]5CC[C@H](Nc6ncc(F)c(-c7cccc(N8CCCCC8=O)c7)n6)CC5)CC4)C(F)(F)C3)c(F)c2)C(=O)N1 (stereo partly drawn) [Compound 499, trans-1′-(4-((2,6-dioxopiperidin-3-yl)amino)-2-fluorophenyl)-3′,3′-difluoro-N-(4-((5-fluoro-4-(3-(2-oxopiperidin-1-yl)phenyl)pyrimidin-2-yl)amino)cyclohexyl)-[1,4′-bipiperidine]-4-carboxamide] |
| < 500 nM | Cn1nc(C2CCC(=O)NC2=O)c2ccc(N3CCN(CCN4CCC(C(=O)N[C@H]5CC[C@H](Nc6ncc(F)c(-c7cccc(-n8ccccc8=O)c7)n6)CC5)CC4)CC3)cc21 (stereo partly drawn) [Compound 506, trans-1-(2-(4-(3-(2,6-dioxopiperidin-3-yl)-1-methyl-1H-indazol-6-yl)piperazin-1-yl)ethyl)-N-((1r,4r)-4-((5-fluoro-4-(3-(2-oxopyridin-1(2H)-yl)phenyl)pyrimidin-2-yl)amino)cyclohexyl)piperidine-4-carboxamide] |
| < 500 nM | O=C1CCC(Nc2ccc(C3CCN([C@H]4CC[C@H](NC(=O)[C@H]5CC[C@H](Nc6ncc(F)c(-c7cccc(C(=O)N8CC[C@H](O)C8)c7)n6)CC5)CC4)CC3)c(F)c2)C(=O)N1 (stereo partly drawn) [Compound 510, trans-N-(trans-4-(4-(4-((2,6-dioxopiperidin-3-yl)amino)-2-fluorophenyl)piperidin-1-yl)cyclohexyl)-4-((5-fluoro-4-(3-((S)-3-hydroxypyrrolidine-1-carbonyl)phenyl)pyrimidin-2-yl)amino)cyclohexane-1-carboxamide] |
| < 500 nM | O=C1CCC(Nc2ccc(N3CCN(CC4CCN(C(=O)[C@H]5CC[C@H](Nc6ncc(F)c(-c7cccc(N8CCCCC8)c7)n6)CC5)CC4)CC3)c(F)c2)C(=O)N1 (stereo partly drawn) [Compound 513, trans-3-((3-fluoro-4-(4-((1-(4-((5-fluoro-4-(3-(piperidin-1-yl)phenyl)pyrimidin-2-yl)amino)cyclohexane-1-carbonyl)piperidin-4-yl)methyl)piperazin-1-yl)phenyl)amino)piperidine-2,6-dione] |
| < 500 nM | O=C1CC[C@H](Nc2ccc(C3CCN(CC4(O)CCN(C(=O)[C@H]5CC[C@H](Nc6ncc(F)c(-c7cccc(N8CCCCC8)c7)n6)CC5)CC4)CC3)c(F)c2)C(=O)N1 [Compound 514, trans-3-((3-fluoro-4-(1-((1-(4-((5-fluoro-4-(3-(piperidin-1-yl)phenyl)pyrimidin-2-yl)amino)cyclohexane-1-carbonyl)-4-hydroxypiperidin-4-yl)methyl)piperidin-4-yl)phenyl)amino)piperidine-2,6-dione] |
